Results on nine compounds are retold here after patent US20240252488A1 (KOREA RESEARCH INSTITUTE OF CHEMICAL TECHNOLOGY, priority 2020, published 2024).

Molecules are shown by their SMILES.

In assay [1] the test system is FADD−/− Jurkat cells. Put plainly: Necroptosis inhibition assay, TNF-α-induced necroptosis (CellTiter-Glo 2.0). The conditions noted are these: TNF-α 15 ng/mL; for Necroptosis inhibition assay (Rescue %) 1 μM: compound 1 μM; for Necroptosis inhibition assay (Rescue %) 10 μM: compound 10 μM. Format: cell-based, human. In outline:
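Necroptosis was triggered by TNF-α at 15 ng/mL final following 30 minutes of compound exposure (0.1, 1 or 10 μM final). Incubation ran 20 to 24 hours at 37° C under 5% CO2; cell ATP was then quantified by luminescence.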

Assay [2] has as its target T1, MLKL (Homo sapiens, UniProt Q8NB16).
T1 sequence (Q8NB16 1-471): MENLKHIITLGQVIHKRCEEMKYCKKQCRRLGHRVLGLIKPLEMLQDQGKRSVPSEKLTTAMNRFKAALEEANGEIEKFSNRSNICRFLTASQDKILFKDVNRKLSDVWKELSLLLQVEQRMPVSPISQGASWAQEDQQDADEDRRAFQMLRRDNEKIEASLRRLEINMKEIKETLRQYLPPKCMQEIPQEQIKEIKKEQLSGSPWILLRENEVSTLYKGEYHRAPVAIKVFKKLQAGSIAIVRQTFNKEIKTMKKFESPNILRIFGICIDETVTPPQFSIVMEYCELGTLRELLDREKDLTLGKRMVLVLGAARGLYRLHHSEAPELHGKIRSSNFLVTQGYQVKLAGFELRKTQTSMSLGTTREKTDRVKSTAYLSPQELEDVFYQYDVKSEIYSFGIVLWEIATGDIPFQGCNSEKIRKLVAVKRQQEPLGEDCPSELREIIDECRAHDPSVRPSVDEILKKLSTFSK
Put plainly: MLKL degradation assay in HepG2 cell line (western blot). Also on record: endogenous in cells; host or cells: HepG2 or HaCaT. To be noted: cell line not given; for Degradation assay (Degradation %) 1 μM: compound 1 μM; for Degradation assay (Degradation %) 10 μM: compound 10 μM. Format: cell-based. In outline:
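After treating HepG2 with test compounds (final 1 μM or 10 μM) for 20-24 h, we lysed cells, equalized protein by BCA and probed MLKL by overnight primary antibody at 4 °C followed by chemiluminescent detection.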

The target in assay [3] is T1, MLKL. Briefly: Measurement of binding affinity with MLKL receptor (competitive binding assay, Kd). Also on record: made in house; host or cells: HEK 293 cell line (T7 phage in E. coli BL21-derived host is also described). In outline:
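Competitive displacement of MLKL, expressed in HEK 293 cells and DNA-tagged for qPCR, from immobilized ligand on biotin-blocked beads. Compounds were added from 111× DMSO stocks (final DMSO 0.9%). Kinase left in the eluates was quantified by qPCR to give Kd.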

Take `Nc1ncc(-c2cnn(C3CCN(CC4CCN(C(=O)C5CN(c6ccc7c(c6)C(=O)N(C6CCC(=O)NC6=O)C7=O)C5)CC4)CC3)c2)nc1C(=O)O[C@@H](C(=O)Nc1ccc(F)cc1)c1ccccc1` (stereo partly drawn) [TDH-145, (R)-2-((4-fluorophenyl)amino)-2-oxo-1-phenylethyl 3-amino-6-(1-(1-((1-(1-(2-(2,6-dioxopiperidin-3-yl)-1,3-dioxoisoindolin-5-yl)azetidine-3-carbonyl)piperidin-4-yl)methyl)piperidin-4-yl)-1H-pyrazol-4-yl)pyrazine-2-carboxylate]: in assay [1], the “Necroptosis inhibition assay (Rescue %) 1 μM” value is listed as 51.47% and the “Necroptosis inhibition assay (Rescue %) 10 μM” value is 40.41%. In assay [2], the “Degradation assay (Degradation %) 1 μM” value is 36.97% and the “Degradation assay (Degradation %) 10 μM” value stood at 55.66%. The equilibrium dissociation constant (Kd) in assay [3] was determined as 2.5 nM.

Consider `Nc1ncc(-c2cnn(C3CCN(CCCN4CCN(c5ccc6c(c5)C(=O)N(C5CCC(=O)NC5=O)C6=O)CC4)CC3)c2)nc1C(=O)OC(C(=O)Nc1ccc(F)cc1)c1ccccc1` (centres unmarked) [TDH-246, 2-((4-fluorophenyl)amino)-2-oxo-1-phenylethyl 3-amino-6-(1-(1-(3-(4-(2-(2,6-dioxopiperidin-3-yl)-1,3-dioxoisoindolin-5-yl)piperazin-1-yl)propyl)piperidin-4-yl)-1H-pyrazol-4-yl)pyrazine-2-carboxylate], for which, in assay [1], the “Necroptosis inhibition assay (Rescue %) 1 μM” value amounted to 60.97% and the “Necroptosis inhibition assay (Rescue %) 10 μM” value was determined as 26.97%. For the same compound, in assay [2], the “Degradation assay (Degradation %) 1 μM” value is reported as 66.35% and the “Degradation assay (Degradation %) 10 μM” value is 46.78%. In assay [3], this compound returned a dissociation constant Kd of 3.3 nM.

For `Nc1ncc(-c2cnn(C3CCN(CCCN4CCN(C(=O)C5CCN(c6cccc7c6C(=O)N(C6CCC(=O)NC6=O)C7=O)CC5)CC4)CC3)c2)nc1C(=O)OC(C(=O)Nc1ccc(F)cc1)c1ccccc1` (centres unmarked) [TDH-239, 2-((4-fluorophenyl)amino)-2-oxo-1-phenylethyl 3-amino-6-(1-(1-(3-(4-(1-(2-(2,6-dioxopiperidin-3-yl)-1,3-dioxoisoindolin-4-yl)piperidine-4-carbonyl)piperazin-1-yl)propyl)piperidin-4-yl)-1H-pyrazol-4-yl)pyrazine-2-carboxylate], in assay [1], the “Necroptosis inhibition assay (Rescue %) 1 μM” value was found to be 40.3% and the “Necroptosis inhibition assay (Rescue %) 10 μM” value was 23.29%. In addition, in assay [2], the “Degradation assay (Degradation %) 1 μM” value is on record as 53.9% and the “Degradation assay (Degradation %) 10 μM” value is reported as 65.78%. In addition, the Kd in assay [3] was determined as 3.8 nM.

`Nc1ncc(-c2cnn(C3CCN(C(=O)CC4CCN(C(=O)CCc5ccc6c(c5)C(=O)N(C5CCC(=O)NC5=O)C6=O)CC4)CC3)c2)nc1C(=O)O[C@@H](C(=O)Nc1ccc(F)cc1)c1ccccc1` (stereo partly drawn) [TDH-403, (R)-2-((4-fluorophenyl)amino)-2-oxo-1-phenylethyl 3-amino-6-(1-(1-(2-(1-(3-(2-(2,6-dioxopiperidin-3-yl)-1,3-dioxoisoindolin-5-yl)propanoyl)piperidin-4-yl)acetyl)piperidin-4-yl)-1H-pyrazol-4-yl)pyrazine-2-carboxylate]: in assay [1] (FADD−/− Jurkat cells), the “Necroptosis inhibition assay (Rescue %) 1 μM” value stood at 43.50% and the “Necroptosis inhibition assay (Rescue %) 10 μM” value was determined as 29.42%. Moreover, in assay [2], the “Degradation assay (Degradation %) 1 μM” value turned out to be 79.40% and the “Degradation assay (Degradation %) 10 μM” value is 83.30%. In assay [3], this compound came in with a dissociation constant Kd of 2.8 nM.

Turning to `Nc1ncc(-c2cnn(C3CCN(CCCN4CCN(C(=O)c5ccc6c(N7CCC(=O)NC7=O)coc6c5)CC4)CC3)c2)nc1C(=O)O[C@@H](C(=O)Nc1ccc(F)cc1)c1ccccc1` [TDH-551, (R)-2-((4-fluorophenyl)amino)-2-oxo-1-phenylethyl 3-amino-6-(1-(1-(3-(4-(3-(2,4-dioxotetrahydropyrimidin-1(2H)-yl)benzofuran-6-carbonyl)piperazin-1-yl)propyl)piperidin-4-yl)-1H-pyrazol-4-yl)pyrazine-2-carboxylate], in assay [1] (FADD−/− Jurkat cells), the “Necroptosis inhibition assay (Rescue %) 1 μM” value was 40.61% and the “Necroptosis inhibition assay (Rescue %) 10 μM” value is 10.85%. For the same compound, in assay [2], the “Degradation assay (Degradation %) 1 μM” value is 88.03% and the “Degradation assay (Degradation %) 10 μM” value was 83.80%. Binding in assay [3] was put at a Kd of 0.3 nM.

As for `Nc1ncc(-c2cnn(C3CCN(CCCCCCCCCCNC(=O)C4CN(c5ccc6c(c5)C(=O)N(C5CCC(=O)NC5=O)C6=O)C4)CC3)c2)nc1C(=O)O[C@@H](C(=O)Nc1ccc(F)cc1)c1ccccc1` (stereo partly drawn) [TDH-159, (R)-2-((4-fluorophenyl)amino)-2-oxo-1-phenylethyl 3-amino-6-(1-(1-(10-(1-(2-(2,6-dioxopiperidin-3-yl)-1,3-dioxoisoindolin-5-yl)azetidine-3-carboxamido)decyl)piperidin-4-yl)-1H-pyrazol-4-yl)pyrazine-2-carboxylate], in assay [1], the “Necroptosis inhibition assay (Rescue %) 1 μM” value was 33.57% and the “Necroptosis inhibition assay (Rescue %) 10 μM” value is 34.1%. Moreover, in assay [2], the “Degradation assay (Degradation %) 10 μM” value was 29.21%. The Kd in assay [3] is 18 nM.

As to `Nc1ncc(-c2cnn(C3CCN(C4CC5(CCN(CC6CCN(C(=O)COc7ccc8c(c7)C(=O)N(C7CCC(=O)NC7=O)C8=O)CC6)CC5)C4)CC3)c2)nc1C(=O)O[C@@H](C(=O)Nc1ccc(F)cc1)c1ccccc1` (stereo partly drawn) [TDH-442, (R)-2-((4-fluorophenyl)amino)-2-oxo-1-phenylethyl 3-amino-6-(1-(1-(7-((1-(2-((2-(2,6-dioxopiperidin-3-yl)-1,3-dioxoisoindolin-5-yl)oxy)acetyl)piperidin-4-yl)methyl)-7-azaspiro[3.5]nonan-2-yl)piperidin-4-yl)-1H-pyrazol-4-yl)pyrazine-2-carboxylate], in assay [1] (FADD−/− Jurkat cells), the “Necroptosis inhibition assay (Rescue %) 1 μM” value stood at 58.16% and the “Necroptosis inhibition assay (Rescue %) 10 μM” value was 21.7%. In addition, in assay [2], the “Degradation assay (Degradation %) 1 μM” value is on record as 80.37% and the “Degradation assay (Degradation %) 10 μM” value is 87.27%. In assay [3], this compound came in with a Kd of 0.53 nM.

In the case of `Nc1ncc(-c2cnn(C3CCN(CCC4CCN(C(=O)CNc5ccc6nnn(C7CCC(=O)NC7=O)c(=O)c6c5)CC4)CC3)c2)nc1C(=O)O[C@@H](C(=O)Nc1ccc(F)cc1)c1ccccc1` (stereo partly drawn) [TDH-334, (R)-2-((4-fluorophenyl)amino)-2-oxo-1-phenylethyl 3-amino-6-(1-(1-(2-(1-((3-(2,6-dioxopiperidin-3-yl)-4-oxo-3,4-dihydrobenzo[d][1,2,3]triazin-6-yl)glycyl)piperidin-4-yl)ethyl)piperidin-4-yl)-1H-pyrazol-4-yl)pyrazine-2-carboxylate], the “Necroptosis inhibition assay (Rescue %) 1.1 μM” value in assay [1] (compound 1.1 µM) is recorded as 86.58 (1.1 µM) %. Besides, the “Necroptosis inhibition assay (Rescue %) 10 μM” value in assay [1] was found to be 50.45%. In addition, in assay [2], the “Degradation assay (Degradation %) 1 μM” value worked out at 75.98% and the “Degradation assay (Degradation %) 10 μM” value was 83.61%. Also, the affinity in assay [3], expressed as Kd, was 0.82 nM.

In the case of `Nc1ncc(-c2cnn(C3CCN(CC4CCN(CC5CCN(c6ccc7c(c6)C(=O)N(C6CCC(=O)NC6=O)C7=O)CC5)CC4)CC3)c2)nc1C(=O)O[C@@H](C(=O)Nc1ccc(F)cc1)c1ccccc1` (stereo partly drawn) [TDH-473, (R)-2-((4-fluorophenyl)amino)-2-oxo-1-phenylethyl 3-amino-6-(1-(1-((1-((1-(2-(2,6-dioxopiperidin-3-yl)-1,3-dioxoisoindolin-5-yl)piperidin-4-yl)methyl)piperidin-4-yl)methyl)piperidin-4-yl)-1H-pyrazol-4-yl)pyrazine-2-carboxylate], in assay [1] (FADD−/− Jurkat cells), the “Necroptosis inhibition assay (Rescue %) 1 μM” value is listed as 28.37% and the “Necroptosis inhibition assay (Rescue %) 10 μM” value is listed as −13.59%. Further, in assay [2], the “Degradation assay (Degradation %) 1 μM” value stood at 63.51% and the “Degradation assay (Degradation %) 10 μM” value was 73.71%. The compound also displayed a dissociation constant Kd in assay [3] of 1.7 nM.
